Measured values published in PubChem BioAssay (NCI).
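These data come from cells grown in 96-well plates and exposed to compound for 48 hours at five concentrations. GI50: concentration for 50% inhibition of growth. TGI: total growth inhibition.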

Key:
Assay in all cases: NCI-60 cell line screen, 48 h
MDA-MB-231 breast = test system: MDA-MB-231 breast
SF-539 CNS = test system: SF-539 CNS
A549 NSCLC = test system: A549 NSCLC
HOP-92 NSCLC = test system: HOP-92 NSCLC
LOX IMVI melanoma = test system: LOX IMVI melanoma
TK-10 renal = test system: TK-10 renal
NCI-H226 lung = test system: NCI-H226 lung
OVCAR-5 ovarian = test system: OVCAR-5 ovarian
T-47D breast = test system: T-47D breast
COLO 205 colon = test system: COLO 205 colon

Oc1ccc(C(=C(Br)c2ccccc2)c2ccc(O)cc2)cc1
TGI (MDA-MB-231 breast): 24 µM
TGI (SF-539 CNS): 18.8 µM
TGI (A549 NSCLC): 19.4 µM
TGI (HOP-92 NSCLC): 22.5 µM
TGI (LOX IMVI melanoma): 17 µM
TGI (TK-10 renal): 31.8 µM
TGI (NCI-H226 lung): 33 µM
TGI (OVCAR-5 ovarian): 31.2 µM
TGI (T-47D breast): 46.2 µM

O=C1c2cc3c(cc2-c2c1c1ccc(Cl)cc1c(=O)n2C[C@H](O)CO)OCO3
GI50 (MDA-MB-231 breast): 0.32 µM
TGI (MDA-MB-231 breast): 1.97 µM
GI50 (SF-539 CNS): 0.0253 µM
TGI (SF-539 CNS): 0.093 µM
GI50 (COLO 205 colon): 0.0954 µM
TGI (COLO 205 colon): 10.1 µM
GI50 (A549 NSCLC): 0.0568 µM
TGI (A549 NSCLC): 0.72 µM
GI50 (LOX IMVI melanoma): 0.0122 µM
TGI (LOX IMVI melanoma): 0.0781 µM
GI50 (TK-10 renal): 0.277 µM
TGI (TK-10 renal): 1.76 µM
GI50 (NCI-H226 lung): 0.0296 µM
TGI (NCI-H226 lung): 0.165 µM
GI50 (OVCAR-5 ovarian): 0.119 µM
TGI (OVCAR-5 ovarian): 1.15 µM
GI50 (T-47D breast): 0.0315 µM
TGI (T-47D breast): > 100 µM

COC(=O)c1cc2c(cc1Cl)Sc1nnc(Nc3ccccc3)n1S2(=O)=O
TGI (MDA-MB-231 breast): 17.7 µM
TGI (SF-539 CNS): 6.07 µM
TGI (COLO 205 colon): 19.5 µM
TGI (A549 NSCLC): 26.9 µM
TGI (HOP-92 NSCLC): 3.75 µM
TGI (LOX IMVI melanoma): 93.6 µM
TGI (TK-10 renal): 8.66 µM
TGI (NCI-H226 lung): 14.8 µM
TGI (OVCAR-5 ovarian): 21.4 µM
TGI (T-47D breast): 3.72 µM

C=C(C#N)C(=O)OCC(CC)CC.C=C(C#N)C(=O)OCC(CC)CC.CS(C)=O.CS(C)=O.Nc1c(N=Nc2ccc(-c3ccc(N=Nc4cc(S(=O)(=O)[O-])c5ccccc5c4N)cc3)cc2)cc(S(=O)(=O)[O-])c2ccccc12.[Pt+2]
GI50 (SF-539 CNS): 84.7 µM
TGI (SF-539 CNS): > 100 µM
GI50 (COLO 205 colon): 22.3 µM
TGI (COLO 205 colon): 45.6 µM
GI50 (A549 NSCLC): > 86.8 µM
TGI (A549 NSCLC): > 100 µM
GI50 (HOP-92 NSCLC): 19.6 µM
TGI (HOP-92 NSCLC): 45.4 µM
GI50 (LOX IMVI melanoma): 35 µM
TGI (LOX IMVI melanoma): > 84.9 µM
GI50 (NCI-H226 lung): 36.8 µM
TGI (NCI-H226 lung): > 74.1 µM
GI50 (OVCAR-5 ovarian): > 78.4 µM
TGI (OVCAR-5 ovarian): > 100 µM

O=C1c2cc(O)c(O)cc2O[C@H](c2ccc(O)c(O)c2)[C@H]1O
TGI (MDA-MB-231 breast): > 100 µM
TGI (SF-539 CNS): > 100 µM
TGI (COLO 205 colon): > 100 µM
TGI (A549 NSCLC): > 100 µM
TGI (HOP-92 NSCLC): > 100 µM
TGI (LOX IMVI melanoma): > 100 µM
TGI (TK-10 renal): > 100 µM
TGI (NCI-H226 lung): > 100 µM
TGI (OVCAR-5 ovarian): > 100 µM
TGI (T-47D breast): > 100 µM

Cc1ccc(S(=O)(=O)N(CC(O)COc2ccccc2)c2c(F)cccc2F)cc1 (stereo not drawn)
TGI (MDA-MB-231 breast): 43.8 µM
TGI (SF-539 CNS): 33 µM
TGI (COLO 205 colon): 27.9 µM
TGI (A549 NSCLC): 40.1 µM
TGI (HOP-92 NSCLC): 8.48 µM
TGI (LOX IMVI melanoma): 28.5 µM
TGI (TK-10 renal): 97.5 µM
TGI (NCI-H226 lung): 71.1 µM
TGI (OVCAR-5 ovarian): > 100 µM
TGI (T-47D breast): 20.1 µM

CCN(CC)CCNc1ccc2ncn3c4ccc(O)cc4c(=O)c1c23
TGI (MDA-MB-231 breast): 14.1 µM
TGI (SF-539 CNS): 16.9 µM
TGI (COLO 205 colon): 14.7 µM
TGI (A549 NSCLC): 7 µM
TGI (HOP-92 NSCLC): 12.8 µM
TGI (LOX IMVI melanoma): 3.15 µM
TGI (TK-10 renal): 20.1 µM
TGI (NCI-H226 lung): 1.33 µM
TGI (OVCAR-5 ovarian): 17.4 µM
TGI (T-47D breast): 30.7 µM

COc1ccc2nc3c(c(N)c2c1)C1CCC3C1(C)C (stereo not drawn)
TGI (MDA-MB-231 breast): 68.3 µM
TGI (SF-539 CNS): > 100 µM
TGI (COLO 205 colon): 36.2 µM
TGI (A549 NSCLC): > 100 µM
TGI (HOP-92 NSCLC): 57.3 µM
TGI (LOX IMVI melanoma): > 100 µM
TGI (TK-10 renal): > 100 µM
TGI (NCI-H226 lung): 72 µM
TGI (OVCAR-5 ovarian): > 100 µM
TGI (T-47D breast): > 100 µM

CSCCC(C(=O)O)N(C)C (stereo not drawn)
TGI (MDA-MB-231 breast): > 100 µM
TGI (SF-539 CNS): > 100 µM
TGI (COLO 205 colon): > 100 µM
TGI (A549 NSCLC): > 100 µM
TGI (HOP-92 NSCLC): > 100 µM
TGI (LOX IMVI melanoma): > 100 µM
TGI (TK-10 renal): > 100 µM
TGI (NCI-H226 lung): > 100 µM
TGI (OVCAR-5 ovarian): > 100 µM
TGI (T-47D breast): > 100 µM

O=c1[nH]c2[nH]c(=S)[nH]c(=S)c2[nH]1
TGI (MDA-MB-231 breast): > 100 µM
TGI (A549 NSCLC): > 100 µM
TGI (HOP-92 NSCLC): > 100 µM
TGI (LOX IMVI melanoma): > 100 µM
TGI (TK-10 renal): > 100 µM
TGI (NCI-H226 lung): > 100 µM
TGI (OVCAR-5 ovarian): > 100 µM
TGI (T-47D breast): > 100 µM

CN1C(=O)CC(=O)N1/C(=C/c1ccccc1)c1ccccc1
TGI (MDA-MB-231 breast): 79.4 µM
TGI (COLO 205 colon): > 100 µM
TGI (A549 NSCLC): > 100 µM
TGI (HOP-92 NSCLC): > 100 µM
TGI (LOX IMVI melanoma): 31.2 µM
TGI (TK-10 renal): 91.9 µM
TGI (NCI-H226 lung): > 100 µM
TGI (OVCAR-5 ovarian): > 100 µM
TGI (T-47D breast): > 100 µM

O=C(CSCC(=O)N/N=C/c1cccc(O)c1)N/N=C/c1cccc(O)c1
TGI (MDA-MB-231 breast): > 100 µM
TGI (SF-539 CNS): > 100 µM
TGI (COLO 205 colon): > 100 µM
TGI (A549 NSCLC): > 100 µM
TGI (HOP-92 NSCLC): > 100 µM
TGI (TK-10 renal): > 100 µM
TGI (NCI-H226 lung): > 100 µM
TGI (OVCAR-5 ovarian): > 100 µM
TGI (T-47D breast): > 100 µM

Cc1ccc(S(=O)(=O)OC2CC(C(C)(C)C)CCC2c2ccccc2)cc1 (stereo not drawn)
TGI (MDA-MB-231 breast): > 100 µM
TGI (SF-539 CNS): > 100 µM
TGI (COLO 205 colon): > 100 µM
TGI (A549 NSCLC): > 100 µM
TGI (HOP-92 NSCLC): > 100 µM
TGI (LOX IMVI melanoma): > 100 µM
TGI (TK-10 renal): > 100 µM
TGI (NCI-H226 lung): > 100 µM
TGI (OVCAR-5 ovarian): > 100 µM
TGI (T-47D breast): > 100 µM

COc1ccc2nc3cc(Cl)ccc3c(NC(C)CCCN(CCCl)CCCl)c2c1 (stereo not drawn)
TGI (SF-539 CNS): 3 µM
TGI (COLO 205 colon): 2.15 µM
TGI (A549 NSCLC): 7.04 µM
TGI (HOP-92 NSCLC): 3.62 µM
TGI (LOX IMVI melanoma): 1.17 µM
TGI (TK-10 renal): 6.04 µM
TGI (NCI-H226 lung): 3.44 µM
TGI (OVCAR-5 ovarian): 8 µM

COc1ccc(OC)c2sc(N3C(=O)/C(=C/c4cccc(Oc5ccccc5)c4)N=C3c3ccccc3)nc12
TGI (MDA-MB-231 breast): > 100 µM
TGI (COLO 205 colon): > 100 µM
TGI (A549 NSCLC): > 100 µM
TGI (HOP-92 NSCLC): > 100 µM
TGI (LOX IMVI melanoma): > 100 µM
TGI (TK-10 renal): > 100 µM
TGI (OVCAR-5 ovarian): > 100 µM
TGI (T-47D breast): > 100 µM
